Here are results for one substance from publication PMC11395447, “Development and Optimization of a Bromothymol Blue-Based PLA2 Assay Involving POPC-Based Self-Assemblies” (International Journal of Molecular Sciences, 2024).

This assay concerns the target T1, PLA2-IB (Phospholipase A2 IB) (Sus scrofa, UniProt P00592).
T1 construct: gene PLA2G1B
The assay can be described thus: bromothymol blue absorbance assay, Michaelis-Menten kinetics on POPC liposomes (Km). Type of assay: biochemical.

T1 sequence (P00592 23-146): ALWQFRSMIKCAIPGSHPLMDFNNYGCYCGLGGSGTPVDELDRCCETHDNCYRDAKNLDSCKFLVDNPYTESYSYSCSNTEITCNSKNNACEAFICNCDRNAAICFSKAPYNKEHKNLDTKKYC

As to POPC, the Km (in general, the concentration of substrate that gives half-maximal velocity) is 12.9 µM.
